Experiment [1] has as its target T1, rat P2X3 receptor (Rattus norvegicus, UniProt P49654).
T1 construct: expressed in transfected cells; host or cells: CHO-K1
T1 sequence (P49654 1-397): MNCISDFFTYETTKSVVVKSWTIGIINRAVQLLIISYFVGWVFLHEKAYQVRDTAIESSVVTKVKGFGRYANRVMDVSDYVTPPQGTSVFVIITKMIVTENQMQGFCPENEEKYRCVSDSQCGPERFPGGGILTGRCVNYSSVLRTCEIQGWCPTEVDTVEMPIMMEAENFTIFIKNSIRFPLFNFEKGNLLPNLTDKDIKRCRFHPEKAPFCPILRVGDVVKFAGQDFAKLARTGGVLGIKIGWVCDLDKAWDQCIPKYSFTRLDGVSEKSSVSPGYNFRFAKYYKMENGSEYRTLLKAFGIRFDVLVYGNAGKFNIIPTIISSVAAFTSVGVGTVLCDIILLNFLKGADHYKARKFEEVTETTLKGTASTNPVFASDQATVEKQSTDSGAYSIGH
Put plainly: P2X3/P2X2/3 FLIPR (Fluorometric Imaging Plate Reader) Assay, P2X3. The following applies: CHO-K1 cells transfected with rat P2X3; agonist α,β-meATP 1 μM; Table 1; read-out: P2X3 pKi (converted). The class given is cell-based. The gist of the method: (§1)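 Compounds were tested as antagonists of agonist-evoked calcium entry in CHO-K1 cells transfected with rat P2X3 or human P2X2/3. After 20 min with compound at room temperature, cells received α,β-meATP at 1 μM (P2X3) or 5 μM (P2X2/3), and peak fluorescence was recorded over 2 min.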

Experiment [2] concerns the target T2, human P2X2/3 receptor (Homo sapiens, UniProt P56373+Q9UBL9).
T2 construct: expressed in transfected cells; host or cells: CHO-K1
T2 sequence (Q9UBL9 1-471): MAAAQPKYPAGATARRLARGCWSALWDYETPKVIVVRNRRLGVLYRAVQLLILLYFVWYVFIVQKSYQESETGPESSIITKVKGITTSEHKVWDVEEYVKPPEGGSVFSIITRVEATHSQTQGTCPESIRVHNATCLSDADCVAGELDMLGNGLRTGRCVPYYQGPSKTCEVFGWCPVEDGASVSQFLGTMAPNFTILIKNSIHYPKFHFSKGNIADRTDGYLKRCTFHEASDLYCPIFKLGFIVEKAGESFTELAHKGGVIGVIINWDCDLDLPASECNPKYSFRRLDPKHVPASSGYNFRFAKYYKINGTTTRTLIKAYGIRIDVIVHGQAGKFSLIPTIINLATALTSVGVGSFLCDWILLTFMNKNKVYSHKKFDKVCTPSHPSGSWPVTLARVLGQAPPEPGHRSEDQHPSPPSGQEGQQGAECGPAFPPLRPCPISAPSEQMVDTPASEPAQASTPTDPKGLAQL
T2 sequence (P56373 1-397): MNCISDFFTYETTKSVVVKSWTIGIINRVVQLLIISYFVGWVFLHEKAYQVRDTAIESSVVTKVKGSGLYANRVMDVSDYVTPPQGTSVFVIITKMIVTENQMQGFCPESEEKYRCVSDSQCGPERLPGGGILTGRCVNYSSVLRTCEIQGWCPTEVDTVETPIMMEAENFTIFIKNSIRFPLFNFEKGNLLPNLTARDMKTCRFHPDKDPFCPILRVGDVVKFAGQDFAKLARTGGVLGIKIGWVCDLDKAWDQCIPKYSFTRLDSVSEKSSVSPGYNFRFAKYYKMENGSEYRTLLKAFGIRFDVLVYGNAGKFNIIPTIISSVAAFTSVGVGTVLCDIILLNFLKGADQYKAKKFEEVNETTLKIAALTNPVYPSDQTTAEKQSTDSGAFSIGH
Put plainly: P2X3/P2X2/3 FLIPR (Fluorometric Imaging Plate Reader) Assay, P2X2/3. The format is cell-based. To be noted: CHO-K1 cells transfected with human P2X2/3; agonist α,β-meATP 5 μM; Table 1; read-out: P2X2/3 pKi (converted). The gist of the method:
as §1

`CCc1ncnn1-c1cc(C(=O)NC(C)c2cnccn2)cc(-c2ccc(Cl)cn2)c1` (stereo not shown) [Compound 106, 3-(5-Chloro-pyridin-2-yl)-5-(5-ethyl-[1,2,4]triazol-1-yl)-N-(1-pyrazin-2-yl-ethyl)-benzamide]: the Ki was 19.1 nM in experiment [1] and 759 nM in experiment [2].

Take `CCc1ncnn1-c1cc(C(=O)NCc2cnc(C)cn2)cc(-c2ccc(C)cn2)c1` [Compound 129, 3-(5-Ethyl-[1,2,4]triazol-1-yl)-N-(5-methyl-pyrazin-2-ylmethyl)-5-(5-methyl-pyridin-2-yl)-benzamide]: the Ki in experiment [1] was 4.9 nM; in experiment [2], 79.4 nM.

In the case of `CC(NC(=O)c1cc(-c2ccc(Cl)cn2)cc(-n2ncnc2C(F)F)c1)c1cnccn1` (stereo not shown) [Compound 76, 3-(5-Chloro-pyridin-2-yl)-5-(5-difluoromethyl-[1,2,4]triazol-1-yl)-N-(1-pyrazin-2-yl-ethyl)-benzamide], the figures for the Ki in experiment [1] and in experiment [2] were 10.2 nM and 741 nM, respectively.

In the case of `CCn1cnnc1-c1cc(C(=O)NC(C)c2cnccn2)cc(-c2ccc(C)cc2)c1` (stereo not shown) [Compound 43, 5-(4-Ethyl-4H-[1,2,4]triazol-3-yl)-4′-methyl-biphenyl-3-carboxylic acid (1-pyrazin-2-yl-ethyl)-amide], the Ki was 7.76 nM in experiment [1] and 813 nM in experiment [2].

On to `Cc1ccc(-c2cc(C(=O)N[C@@H](C)CO)cc(-n3nncc3C(C)C)c2)cc1` [Compound 8, 5-(5-Isopropyl-[1,2,3]triazol-1-yl)-4′-methyl-biphenyl-3-carboxylic acid ((S)-2-hydroxy-1-methyl-ethyl)-amide], for which the Ki in experiment [1] is 3.72 nM; in experiment [2], 309 nM.

In the case of `CCc1ncnn1-c1cc(C(=O)N[C@@H](C)CO)cc(-c2ccc(C)cn2)c1` [Compound 127, 3-(5-Ethyl-[1,2,4]triazol-1-yl)-N-((S)-2-hydroxy-1-methyl-ethyl)-5-(5-methyl-pyridin-2-yl)-benzamide], the Ki in experiment [1] is 24.5 nM; in experiment [2], 6920 nM.

For the compound `Cc1ccc(-c2cc(C(=O)NCc3cnc(C)cn3)cc(-n3ncnc3C(C)C)c2)c(F)c1` [Compound 135, 2′-Fluoro-5-(5-isopropyl-[1,2,4]triazol-1-yl)-4′-methyl-biphenyl-3-carboxylic acid (5-methyl-pyrazin-2-ylmethyl)-amide], the Ki was 4.79 nM in experiment [1] and 25.7 nM in experiment [2].

Take `Cc1ccc(-c2cc(C(=O)NC(C)c3cnccn3)cc(-n3ncnc3C3CC3)c2)nc1` (stereo not shown) [Compound 60, 3-(5-Cyclopropyl-[1,2,4]triazol-1-yl)-5-(5-methyl-pyridin-2-yl)-N-(1-pyrazin-2-yl-ethyl)-benzamide]: the Ki is 19.1 nM in experiment [1] and 389 nM in experiment [2].

Consider `Cc1ccc(-c2cc(C(=O)NCc3cnc(C)cn3)cc(-n3ncnc3-c3ccccc3)c2)nc1` [Compound 143, N-(5-Methyl-pyrazin-2-ylmethyl)-3-(5-methyl-pyridin-2-yl)-5-(5-phenyl-[1,2,4]triazol-1-yl)-benzamide], for which the Ki in experiment [1] is 20.9 nM; in experiment [2] it was 1120 nM.

As for `Cc1ccc(-c2cc(C(=O)NC(C)c3cnccn3)cc(-n3ncnc3C(C)N(C)C)c2)nc1` (stereo not shown) [Compound 142, 3-[5-(1-Dimethylamino-ethyl)-[1,2,4]triazol-1-yl]-5-(5-methyl-pyridin-2-yl)-N-(1-pyrazin-2-yl-ethyl)-benzamide], the Ki in experiment [1] was 9.12 nM; in experiment [2], 229 nM.

For `Cc1ccc(-c2cc(C(=O)N[C@@H](C)CO)cc(-n3ncnc3C)c2)nc1` [Compound 102, N-((S)-2-Hydroxy-1-methyl-ethyl)-3-(5-methyl-pyridin-2-yl)-5-(5-methyl-[1,2,4]triazol-1-yl)-benzamide], the Ki in experiment [1] is 263 nM; in experiment [2], 10000 nM.

As for `Cc1ccc(-c2cc(C(=O)N[C@@H](C)CO)cc(-n3ncnc3C(C)N(C)C)c2)nc1` (stereo partly drawn) [Compound 140, 3-[5-(1-Dimethylamino-ethyl)-[1,2,4]triazol-1-yl]-N-((S)-2-hydroxy-1-methyl-ethyl)-5-(5-methyl-pyridin-2-yl)-benzamide], the Ki was 20 nM in experiment [1] and 2750 nM in experiment [2].

`Cc1ccc(-c2cc(C(=O)NCc3cnc(C)cn3)cc(-n3ncnc3CC(C)(C)O)c2)nc1` [Compound 156, 3-[5-(2-Hydroxy-2-methyl-propyl)-[1,2,4]triazol-1-yl]-N-(5-methyl-pyrazin-2-ylmethyl)-5-(5-methyl-pyridin-2-yl)-benzamide]: the values for the Ki in experiment [1] and in experiment [2] were 123 nM and 10000 nM, respectively.

For `Cc1ccc(-c2cc(C(=O)NCc3cnc(C)cn3)cc(-n3ncnc3CC(C)C)c2)nc1` [Compound 119, 3-(5-Isobutyl-[1,2,4]triazol-1-yl)-N-(5-methyl-pyrazin-2-ylmethyl)-5-(5-methyl-pyridin-2-yl)-benzamide], the Ki in experiment [1] was 3.55 nM; in experiment [2], 23.4 nM.

Take `Cc1ccc(-c2cc(C(=O)NC(C)CO)cc(-n3ncnc3C(C)C)c2)c(F)c1` (stereo not shown) [Compound 34, 2′-Fluoro-5-(5-isopropyl-[1,2,4]triazol-1-yl)-4′-methyl-biphenyl-3-carboxylic acid (2-hydroxy-1-methyl-ethyl)-amide]: the Ki in experiment [1] was 3.24 nM; in experiment [2], 427 nM.

In the case of `COCC(C)NC(=O)c1cc(-c2ccc(C)cc2)cc(-n2ncnc2C(C)C)c1` (stereo not shown) [Compound 14, 5-(5-Isopropyl-[1,2,4]triazol-1-yl)-4′-methyl-biphenyl-3-carboxylic acid (2-methoxy-1-methyl-ethyl)-amide], the Ki was 12 nM in experiment [1] and 1020 nM in experiment [2].

With `Cc1ccc(-c2cc(C(=O)N[C@@H](C)CO)cc(-n3ncnc3C(C)C)c2)cc1` [Compound 17, 5-(5-Isopropyl-[1,2,4]triazol-1-yl)-4′-methyl-biphenyl-3-carboxylic acid ((S)-2-hydroxy-1-methyl-ethyl)-amide], the figures for the Ki in experiment [1] and in experiment [2] were 2.88 nM and 141 nM, respectively.

Turning to `CC(NC(=O)c1cc(-c2ccc(Cl)cn2)cc(-n2ncnc2C(F)(F)F)c1)c1cnccn1` (stereo not shown) [Compound 79, 3-(5-Chloro-pyridin-2-yl)-N-(1-pyrazin-2-yl-ethyl)-5-(5-trifluoro-methyl-[1,2,4]triazol-1-yl)-benzamide], the Ki is 8.51 nM in experiment [1] and 372 nM in experiment [2].

In the case of `Cc1cnc(CNC(=O)c2cc(-c3ccc(Cl)cn3)cc(-n3ncnc3C(C)C)c2)cn1` [Compound 121, 3-(5-Chloro-pyridin-2-yl)-5-(5-isopropyl-[1,2,4]triazol-1-yl)-N-(5-methyl-pyrazin-2-ylmethyl)-benzamide], the Ki in experiment [1] is 5.89 nM; in experiment [2], 107 nM.

Consider `CC(C)Oc1ncnn1-c1cc(C(=O)NC(C)c2cnccn2)cc(-c2ccc(Cl)cc2)c1` (stereo not shown) [Compound 52, 4′-Chloro-5-(5-isopropoxy-[1,2,4]triazol-1-yl)-biphenyl-3-carboxylic acid (1-pyrazin-2-yl-ethyl)-amide], for which the Ki in experiment [1] is 14.1 nM; in experiment [2], 891 nM.

As for `Cc1ccc(-c2cc(C(=O)N[C@@H](C)CO)cc(-n3ncnc3C3CC3)c2)nc1` [Compound 59, 3-(5-Cyclopropyl-[1,2,4]triazol-1-yl)-N-(2-hydroxy-1-methyl-ethyl)-5-(5-methyl-pyridin-2-yl)-benzamide], the results for the Ki in experiment [1] and in experiment [2] were 77.6 nM and 6170 nM, respectively.

`Cc1ccc(-c2cc(-n3ncnc3C(F)(F)F)cc(C(=O)NCc3cnc(C)cn3)c2F)nc1` [Compound 169, 2-Fluoro-N-(5-methyl-pyrazin-2-ylmethyl)-3-(5-methyl-pyridin-2-yl)-5-(5-trifluoromethyl-[1,2,4]triazol-1-yl)-benzamide]: the Ki in experiment [1] was 4.27 nM; in experiment [2], 95.5 nM.

On to `CC(NC(=O)c1cc(-c2ccc(Cl)cc2)cc(-n2cncn2)c1)c1cnccn1` (stereo not shown) [Compound 51, 4′-Chloro-5-[1,2,4]triazol-1-yl-biphenyl-3-carboxylic acid (1-pyrazin-2-yl-ethyl)-amide], for which the Ki was 200 nM in experiment [1] and 2950 nM in experiment [2].

Source of the values: patent publication US8440708B2, “Triazole-substituted arylamides as P2X3 and P2X2/3 antagonists” (Roche Palo Alto LLC, priority 2007, dated 2013).
